Test results: ChEMBL document CHEMBL3045629, “Synthesis and Herbicidal Activity of Hydantocidin Analogues: Modification of the Carbonyl Groups in Spirohydantoin” (1995)

Experiments:
Assay type in all cases: functional
[1] = test system: Abutilon theophrasti; assay: Herbicidal activity against three-leaf stage Abutilon theophrasti (velvetleaf) exposed to foliar compound spraying at 1000 ppm measured 10 days after compound treatment
[2] = test system: Ambrosia artemisiifolia; assay: Herbicidal activity against three-leaf stage Ambrosia artemisiifolia (ragweed) exposed to foliar compound spraying at 1000 ppm measured 10 days after compound treatment
[3] = test system: Xanthium strumarium; assay: Herbicidal activity against three-leaf stage Xanthium strumarium (cocklebur) exposed to foliar compound spraying at 1000 ppm measured 10 days after compound treatment
[4] = test system: Ipomoea purpurea; assay: Herbicidal activity against three-leaf stage Ipomoea purpurea (common morning-glory) exposed to foliar compound spraying at 1000 ppm measured 10 days after compound treatment
[5] = test system: Solanum nigrum; assay: Herbicidal activity against three-leaf stage Solanum nigrum (black nightshade) exposed to foliar compound spraying at 1000 ppm measured 10 days after compound treatment
[6] = test system: Sorghum halepense; assay: Herbicidal activity against three-leaf stage Sorghum halepense (Johnson grass) exposed to foliar compound spraying at 1000 ppm measured 10 days after compound treatment
[7] = test system: Panicum dichotomiflorum; assay: Herbicidal activity against three-leaf stage Panicum dichotomiflorum exposed to foliar compound spraying at 1000 ppm measured 10 days after compound treatment
[8] = test system: Digitaria sanguinalis; assay: Herbicidal activity against three-leaf stage Digitaria sanguinalis (hairy crabgrass) exposed to foliar compound spraying at 1000 ppm measured 10 days after compound treatment
[9] = test system: Echinochloa crus-galli; assay: Herbicidal activity against three-leaf stage Echinochloa crus-galli (barnyard grass) exposed to foliar compound spraying at 1000 ppm measured 10 days after compound treatment
[10] = test system: Setaria viridis; assay: Herbicidal activity against three-leaf stage Setaria viridis (green foxtail) exposed to foliar compound spraying at 1000 ppm measured 10 days after compound treatment

Work on `O=C1NC(=O)[C@]2(N1)O[C@H](CO)[C@@H](O)[C@H]2O` [HYDANTOCIDIN] yielded an Activity [1] of 95%, an Activity [2] of 95% and an Activity [3] of 95%. For the same compound, the Activity [4] was 95%, the Activity [5] was 95% and the Activity [6] was 95%. It also gave an Activity [7] of 95%, an Activity [8] of 95% and an Activity [9] of 95%. For the same compound, the Activity [10] was 95%.
`O=C1NC(NCc2ccccc2)=N[C@]12O[C@H](CO)[C@@H](O)[C@H]2O` gave an Activity [1] of 0%, an Activity [2] of 95% and an Activity [3] of 95%. For the same compound, the Activity [4] was 10%, the Activity [5] was 30% and the Activity [6] was 0%. It also gave an Activity [7] of 0%, an Activity [8] of 0% and an Activity [9] of 0%. It also gave an Activity [10] of 0%.
Work on `O=C1NC[C@]2(N1)O[C@H](CO)[C@@H](O)[C@H]2O` yielded an Activity [1] of 10%, an Activity [2] of 10% and an Activity [3] of 0%. The Activity [4] was 0%, the Activity [5] was 10% and the Activity [6] was 10%. It also gave an Activity [7] of 10%, an Activity [8] of 0% and an Activity [9] of 10%. For the same compound, the Activity [10] was 10%.
